Experimental data published in patent US20100021524A1 (OsteoGeneX Inc., priority 2008, published 2010).
Where a name gives a salt, the structure may show the parent alone.

Tests used:
[1] = system: Wnt pathway; assay: Modulation of the Wnt pathway to promote bone growth (FIG. 1); conditions: doses of 2.5 ng (low), 125 ng (high) and 1250 ng (very high)
Experimental: (§1) For example, the mouse test animal is treated with a predetermined dose of a SOST antagonist candidate for a complete dosing schedule. A control mouse is treated with a control solution, preferably a non-irritating buffer solution or other carrier. Once the dosing schedule has been completed, both test and control animals are examined with sacrifice using micro-CT to determine the quantity of bone formation present.

[2] = system: C57BL/6 mice; assay: Bone growth with pimethixene: 30-day daily i.p. treatment, serum osteocalcin (EIA Elisa) and trabecular bone volume (micro-CT); type: in vivo, mouse; conditions: four month old male C57BL/6 mice, daily i.p. for 30 days, FIG. 2
Experimental: Four month old male C57BL/6 mice were treated daily with saline vehicle or the sclerostin inhibitor of pimethixene at several doses (via i.p) for 30 days. Study endpoints included a biochemical marker of bone formation; osteocalcin, measured by EIA Elisa, and measurement of trabecular bone volume by mico-CT analysis on the proximal tibia and spine (lumbar 5).

[3] = system: mouse; assay: Mouse bone formation assay for SOST antagonist candidates, examined by micro-CT; type: in vivo; conditions: complete dosing schedule, versus control solution
From the text: Compounds useful in the methods of the present invention can be identified via a variety of methods known to one of skill in the art. Several exemplary methods for identifying such antagonists are described herein, including cell-based and in vitro techniques (Journal of Bone and Mineral Research 2006, 21(11), 1738-1749). A general method of identifying SOST antagonists involves evaluating the effects of antagonist candidates on bone formation under controlled conditions. Preferably bone formation is determined using micro-CT techniques on live animals. Preferred animals include rodents, more preferred are primates. Femur, tibia and vertebrae bones are particularly useful subjects for such study.
Briefly, the test animal is treated with a predetermined dose of a SOST antagonist candidate. […]
Once the dosing schedule has been completed, both test and control animals are examined to determine the quantity of bone formation present. […] Where necessary, levels of bone formation can be calculated by determining the volume of bone formation present in each animal. […]
as §1, with “A control mouse is treated with a control solution, preferably a non-irritating buffer solution or other carrier.” left out

Structure (SMILES)	modulating the Wnt pathway to promote bone growth [1]	increase in bone volume for lumbar 5 over baseline controls, μ-CT analysis ([2]; dosed at 0.01 mg/kg, 0.1 mg/kg or 10 mg/kg)	percent increase in serum osteocalcin bone formation marker over saline controls ([2]; dosed between 10 mg/kg and 0.1 mg/kg) [%]	bone growth (quantity of bone formation present, micro-CT) [3]
CN1CCC(=C2c3ccccc3Sc3ccccc32)CC1 [pimethixene maleate]	modulating the Wnt pathway to promote bone growth	greater than 30%	25	–
CN1CCC(=C2c3ccccc3Sc3ccccc32)CC1 [pimethixene]	–	–	–	promoting bone growth
